The source of these data is patent publication US8895733B2 (Novartis AG, priority 2010, dated 2014).

T1 sequence (Q15858 whole entry): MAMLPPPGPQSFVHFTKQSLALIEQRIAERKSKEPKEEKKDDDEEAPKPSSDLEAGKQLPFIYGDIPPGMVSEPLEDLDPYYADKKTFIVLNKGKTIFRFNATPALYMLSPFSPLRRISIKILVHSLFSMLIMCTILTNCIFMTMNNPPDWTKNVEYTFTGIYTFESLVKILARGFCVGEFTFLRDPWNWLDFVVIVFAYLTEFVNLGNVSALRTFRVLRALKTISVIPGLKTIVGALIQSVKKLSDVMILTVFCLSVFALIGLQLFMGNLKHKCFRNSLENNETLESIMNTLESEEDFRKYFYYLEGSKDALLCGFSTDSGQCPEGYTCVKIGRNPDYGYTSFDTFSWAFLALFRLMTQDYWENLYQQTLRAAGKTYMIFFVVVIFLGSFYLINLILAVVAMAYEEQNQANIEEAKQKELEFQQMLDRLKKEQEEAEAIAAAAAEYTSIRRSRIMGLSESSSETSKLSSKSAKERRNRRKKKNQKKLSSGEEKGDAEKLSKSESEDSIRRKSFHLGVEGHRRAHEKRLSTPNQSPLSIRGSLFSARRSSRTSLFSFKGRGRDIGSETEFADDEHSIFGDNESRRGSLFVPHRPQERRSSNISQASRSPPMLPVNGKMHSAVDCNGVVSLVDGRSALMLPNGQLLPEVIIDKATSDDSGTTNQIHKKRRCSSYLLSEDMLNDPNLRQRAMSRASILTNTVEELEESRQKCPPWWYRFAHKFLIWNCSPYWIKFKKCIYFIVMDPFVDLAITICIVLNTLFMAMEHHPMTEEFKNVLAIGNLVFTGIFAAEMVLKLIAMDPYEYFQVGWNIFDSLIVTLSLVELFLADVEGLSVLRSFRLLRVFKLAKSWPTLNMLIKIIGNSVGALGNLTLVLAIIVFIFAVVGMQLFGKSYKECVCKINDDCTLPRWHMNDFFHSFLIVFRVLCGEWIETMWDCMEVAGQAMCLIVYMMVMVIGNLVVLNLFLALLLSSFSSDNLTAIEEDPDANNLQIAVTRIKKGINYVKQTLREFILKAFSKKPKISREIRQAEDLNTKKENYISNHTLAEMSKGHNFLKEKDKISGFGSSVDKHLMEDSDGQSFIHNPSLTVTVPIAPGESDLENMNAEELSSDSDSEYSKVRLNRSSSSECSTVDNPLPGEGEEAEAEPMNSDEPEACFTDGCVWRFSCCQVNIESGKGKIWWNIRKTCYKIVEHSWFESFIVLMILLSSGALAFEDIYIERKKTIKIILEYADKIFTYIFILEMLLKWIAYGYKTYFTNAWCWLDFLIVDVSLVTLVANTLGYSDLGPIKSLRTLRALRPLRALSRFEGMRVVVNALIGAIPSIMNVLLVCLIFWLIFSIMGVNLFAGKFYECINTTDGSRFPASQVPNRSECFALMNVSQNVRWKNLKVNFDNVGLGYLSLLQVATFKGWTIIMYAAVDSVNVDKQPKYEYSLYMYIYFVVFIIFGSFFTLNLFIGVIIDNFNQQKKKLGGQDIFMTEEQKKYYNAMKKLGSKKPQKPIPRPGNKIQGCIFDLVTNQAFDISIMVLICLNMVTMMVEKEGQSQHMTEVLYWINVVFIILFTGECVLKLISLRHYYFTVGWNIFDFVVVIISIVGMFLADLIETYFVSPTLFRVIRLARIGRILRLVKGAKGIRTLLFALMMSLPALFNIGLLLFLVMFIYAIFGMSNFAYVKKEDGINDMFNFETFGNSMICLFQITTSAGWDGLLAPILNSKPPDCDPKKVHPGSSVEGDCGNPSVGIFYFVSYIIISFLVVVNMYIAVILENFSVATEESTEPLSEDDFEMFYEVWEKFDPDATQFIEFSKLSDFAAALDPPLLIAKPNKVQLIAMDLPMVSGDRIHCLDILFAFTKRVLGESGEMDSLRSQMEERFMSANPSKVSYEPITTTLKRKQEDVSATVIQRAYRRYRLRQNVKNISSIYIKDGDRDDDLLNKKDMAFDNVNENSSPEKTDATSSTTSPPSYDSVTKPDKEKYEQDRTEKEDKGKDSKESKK

One test has as its target T1, Nav 1.7 (Homo sapiens, UniProt Q15858).
T1 construct: expressed in transfected cells
Put plainly: Whole-cell voltage clamp electrophysiology, automated patch clamp (marker c in Table of Examples). The test is classed as cell-based. As to conditions: marker c = Automated patch clamp data; read-out: Nav 1.7 activity. In outline: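 Human NaV1.7 currents were recorded by whole-cell automated patch clamp, on IonWorks Quattro or another automated platform, typically in perforated-patch configuration. The stimulus protocol was designed to probe block mainly of the inactivated state, with a typical sweep stepping from about −65 mV holding to −10 mV, then −100 mV.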
Turning to `CN(c1ccccc1)c1nc(N)nc(-c2noc(C3CC(Oc4ccccc4)C3)n2)n1` (mixture of isomers) [Example 261, 2-N-Methyl-6-[5-(3-phenoxycyclobutyl)-1,2,4-oxadiazol-3-yl]-2-N-phenyl-1,3,5-triazine-2,4-diamine], the IC50 turned out to be 1390 nM. On the same count and under the same terms, as for `CN(c1ccccc1)c1nc(N)nc(-c2noc(N3CC[C@@H](OCC(F)(F)F)C3)n2)n1` [Example 443, 2-N-methyl-2-N-phenyl-6-{5-[(3R)-3-(2,2,2-trifluoroethoxy)pyrrolidin-1-yl]-1,2,4-oxadiazol-3-yl}-1,3,5-triazine-2,4-diamine], the figure is 7290 nM. On the same count and under the same terms, as for `Nc1nc(Nc2ccccc2)nc(-c2noc(-c3ncccc3Cl)n2)n1` [Example 431, 6-[5-(3-chloropyridin-2-yl)-1,2,4-oxadiazol-3-yl]-2-N-phenyl-1,3,5-triazine-2,4-diamine], the figure is 142 nM; as for `COC[C@@H]1CCCN1c1nc(-c2nc(N)nc(N(C)c3ccccc3)n2)no1` [Example 446, 6-{5-[(2S)-2-(methoxymethyl)pyrrolidin-1-yl]-1,2,4-oxadiazol-3-yl}-2-N-methyl-2-N-phenyl-1,3,5-triazine-2,4-diamine], 3620 nM; as for `CN(c1ccccc1)c1nc(N)nc(-c2noc(-c3ncccc3N3CCOCC3)n2)n1` [Example 490, 2-N-methyl-6-{5-[3-(morpholin-4-yl)pyridin-2-yl]-1,2,4-oxadiazol-3-yl}-2-N-phenyl-1,3,5-triazine-2,4-diamine], 464 nM. Same read-out and setting: the same measure for `CN(c1ccccc1)c1nc(N)nc(-c2noc(-c3ncccc3NCC3CC3)n2)n1` [Example 487, 6-{5-[3-(Cyclopropylmethylamino)-pyridin-2-yl]-[1,2,4]oxadiazol-3-yl}-N-methyl-N-phenyl-[1,3,5]triazine-2,4-diamine]: above 6590 nM; for `CN(c1ccccc1)c1nc(N)nc(-c2noc(-c3ccc(S(C)(=O)=O)cc3)n2)n1` [Example 421, 6-[5-(4-methanesulfonylphenyl)-1,2,4-oxadiazol-3-yl]-2-N-methyl-2-N-phenyl-1,3,5-triazine-2,4-diamine]: 1430 nM. As to `CN(c1ccccc1)c1nc(N)nc(-c2noc(C3CN(CC(F)(F)F)C3)n2)n1` [Example 314, 2-N-Methyl-2-N-phenyl-6-{5-[1-(2,2,2-trifluoroethyl)azetidin-3-yl]-1,2,4-oxadiazol-3-yl}-1,3,5-triazine-2,4-diamine], the IC50 was found to be 3070 nM. Still for that read-out and setting: the same measure for `CN(c1ccccc1)c1nc(N)nc(-c2noc(N3CCC(COCCC(F)(F)F)CC3)n2)n1` [Example 501, 2-N-methyl-2-N-phenyl-6-(5-{4-[(3,3,3-trifluoropropoxy)methyl]piperidin-1-yl}-1,2,4-oxadiazol-3-yl)-1,3,5-triazine-2,4-diamine]: 344 nM; for `Nc1nc(Nc2cccc(F)c2)nc(-c2noc(C(=O)N3CCCC3)n2)n1` [Example 227, 2-N-(3-fluorophenyl)-6-{5-[(pyrrolidin-1-yl)carbonyl]-1,2,4-oxadiazol-3-yl}-1,3,5-triazine-2,4-diamine]: 241 nM; for `CN(c1ccccc1)c1nc(N)nc(-c2noc(C3CCN(C(=O)OC(C)(C)C)CC3)n2)n1` [Example 505, tert-butyl 4-(3-{4-amino-6-[methyl(phenyl)amino]-1,3,5-triazin-2-yl}-1,2,4-oxadiazol-5-yl)piperidine-1-carboxylate]: 982 nM. Still for that read-out and setting: as for `Nc1nc(Nc2cccc(F)c2)nc(-c2noc(C(=O)NC3CCCC3)n2)n1` [Example 219, 3-{4-amino-6-[(3-fluorophenyl)amino]-1,3,5-triazin-2-yl}-N-cyclopentyl-1,2,4-oxadiazole-5-carboxamide], the figure is 1960 nM; as for `CC(OCC(F)(F)F)c1ccc(-c2nc(-c3nc(N)nc(N(C)c4ccccc4)n3)no2)nc1` (stereo not drawn) [Example 358, 2-N-Methyl-2-N-phenyl-6-(5-{5-[1-(2,2,2-trifluoroethoxy)ethyl]pyridin-2-yl}-1,2,4-oxadiazol-3-yl)-1,3,5-triazine-2,4-diamine], 56 nM; as for `CN(c1ccccc1)c1nc(N)nc(-c2noc(N3CCC(Oc4ccccn4)CC3)n2)n1` [Example 354, 2-N-methyl-2-N-phenyl-6-{5-[4-(pyridin-2-yloxy)piperidin-1-yl]-1,2,4-oxadiazol-3-yl}-1,3,5-triazine-2,4-diamine], 1200 nM. Still for that read-out and setting: the same measure for `CN(C)S(=O)(=O)N1CCC(c2nc(-c3nc(N)nc(Nc4ccccc4)n3)no2)CC1` [Example 517, 4-{3-[4-amino-6-(phenylamino)-1,3,5-triazin-2-yl]-1,2,4-oxadiazol-5-yl}-N,N-dimethylpiperidine-1-sulfonamide]: 570 nM; for `Nc1nc(Nc2cccc(F)c2)nc(-c2noc(C(=O)NC3COC3)n2)n1` [Example 250, 3-{4-amino-6-[(3-fluorophenyl)amino]-1,3,5-triazin-2-yl}-N-(oxetan-3-yl)-1,2,4-oxadiazole-5-carboxamide]: 9850 nM. As for `CN(c1ccccc1)c1nc(N)nc(-c2noc(-c3ccc(CNC4CCC4)nc3)n2)n1` [Example 300, 6-(5-{6-[(cyclobutylamino)methyl]pyridin-3-yl}-1,2,4-oxadiazol-3-yl)-2-N-methyl-2-N-phenyl-1,3,5-triazine-2,4-diamine], the IC50 is 619 nM. Still for that read-out and setting: the same measure for `CN(c1ccccc1)c1nc(N)nc(-c2noc(-c3ncccc3COCC(F)(F)F)n2)n1` [Example 302, 2-N-methyl-2-N-phenyl-6-(5-{3-[(2,2,2-trifluoroethoxy)methyl]pyridin-2-yl}-1,2,4-oxadiazol-3-yl)-1,3,5-triazine-2,4-diamine]: 406 nM. Same read-out and setting: the same measure for `CN(c1cccc(Cl)c1)c1nc(N)nc(-c2noc(-c3ncccc3F)n2)n1` [Example 272, 2-N-(3-chlorophenyl)-6-[5-(3-fluoropyridin-2-yl)-1,2,4-oxadiazol-3-yl]-2-N-methyl-1,3,5-triazine-2,4-diamine]: 478 nM; for `CN(c1ccccc1)c1nc(N)nc(-c2noc(N3CC(COCCC(F)(F)F)C3)n2)n1` [Example 496, 2-N-methyl-2-N-phenyl-6-(5-{3-[(3,3,3-trifluoropropoxy)methyl]azetidin-1-yl}-1,2,4-oxadiazol-3-yl)-1,3,5-triazine-2,4-diamine]: 1220 nM. The same measure, in the same setting: as for `CN(c1ccccc1)c1nc(N)nc(-c2noc(-c3ccc(COCC(F)(F)F)cn3)n2)n1` [Example 349, 2-N-methyl-2-N-phenyl-6-(5-{5-[(2,2,2-trifluoroethoxy)methyl]pyridin-2-yl}-1,2,4-oxadiazol-3-yl)-1,3,5-triazine-2,4-diamine], the figure is 2.5 nM; as for `CN(c1ccccc1)c1nc(N)nc(-c2noc(-c3ccc(C(=O)NCC(F)(F)F)cn3)n2)n1` [Example 292, 6-(3-{4-amino-6-[methyl(phenyl)amino]-1,3,5-triazin-2-yl}-1,2,4-oxadiazol-5-yl)-N-(2,2,2-trifluoroethyl)pyridine-3-carboxamide], 2710 nM; as for `CN(c1ccccc1)c1nc(N)nc(-c2noc(N3CCC(=CCC(F)(F)F)CC3)n2)n1` [Example 324, 2-N-Methyl-2-N-phenyl-6-{5-[4-(3,3,3-trifluoropropylidene)piperidin-1-yl]-1,2,4-oxadiazol-3-yl}-1,3,5-triazine-2,4-diamine], 2360 nM. As to `CN(c1ccccc1)c1nc(N)nc(-c2noc(-c3ncccc3C(=O)OCC3CC3)n2)n1` [Example 377], the IC50 is 232 nM. On the same count and under the same terms, the same measure for `CN(c1ccccc1)c1nc(N)nc(-c2noc(C3CN(Cc4ccccc4)C3)n2)n1` [Example 383, 6-[5-(1-benzylazetidin-3-yl)-1,2,4-oxadiazol-3-yl]-2-N-methyl-2-N-phenyl-1,3,5-triazine-2,4-diamine]: 1540 nM. Same read-out and setting: the same measure for `CN(c1ccccc1)c1nc(N)nc(-c2noc(N3CCC(c4ccccc4)CC3)n2)n1` [Example 352, 2-N-methyl-2-N-phenyl-6-[5-(4-phenylpiperidin-1-yl)-1,2,4-oxadiazol-3-yl]-1,3,5-triazine-2,4-diamine]: 1280 nM.

The same test, now with this note: marker c: Automated patch clamp data; read-out: Nav 1.7 activity.
With `CN(c1ccccc1)c1nc(N)nc(-c2noc(-c3cccc(F)c3)n2)n1` [Example 123, 6-[5-(3-Fluoro-phenyl)-[1,2,4]oxadiazol-3-yl]-N-methyl-N-phenyl-[1,3,5]triazine-2,4-diamine], the IC50 turned out to be 929 nM. The same measure, in the same setting: the same measure for `Cc1cccc(-c2nc(-c3nc(N)nc(N(C)c4ccccc4)n3)no2)c1` [Example 28, N-Methyl-N-phenyl-6-(5-m-tolyl-[1,2,4]oxadiazol-3-yl)-[1,3,5]triazine-2,4-diamine]: 955 nM. With `COc1ccc(-c2nc(-c3nc(N)nc(N(C)c4cccc(C)c4)n3)no2)cc1` [Example 184, 6-[5-(4-methoxyphenyl)-1,2,4-oxadiazol-3-yl]-2-N-methyl-2-N-(3-methylphenyl)-1,3,5-triazine-2,4-diamine], the IC50 was 62 nM. Turning to `Cc1cc(-c2nc(-c3nc(N)nc(N(C)c4ccccc4)n3)no2)oc1C` [Example 49, 6-[5-(4,5-Dimethyl-furan-2-yl)-[1,2,4]oxadiazol-3-yl]-N-methyl-N-phenyl-[1,3,5]triazine-2,4-diamine], the IC50 turned out to be 1230 nM. For the compound `CN(c1ccccc1)c1nc(N)nc(-c2noc(-c3ccc[nH]3)n2)n1` [Example 60, N-Methyl-N-phenyl-6-[5-(1H-pyrrol-2-yl)-[1,2,4]oxadiazol-3-yl]-[1,3,5]triazine-2,4-diamine], the IC50 was 4910 nM. Still for that read-out and setting: as for `CN(c1ccccc1)c1nc(N)nc(-c2noc(-c3ccncc3)n2)n1` [Example 114, N-Methyl-N-phenyl-6-(5-pyridin-4-yl-[1,2,4]oxadiazol-3-yl)-[1,3,5]triazine-2,4-diamine], the figure is 606 nM. For `CN(c1ccccc1)c1nc(N)nc(-c2noc(N3CCC(CS(=O)(=O)c4ccccc4)CC3)n2)n1` [Example 179, 6-(5-{4-[(benzenesulfonyl)methyl]piperidin-1-yl}-1,2,4-oxadiazol-3-yl)-2-N-methyl-2-N-phenyl-1,3,5-triazine-2,4-diamine], the IC50 is 810 nM.
